Experimental data: ChEMBL document CHEMBL5365434, “Cyclic Diguanylate G-Quadruplex Inducer-Nitric Oxide Donor Conjugate as a Bifunctional Antibiofilm Agent and Antibacterial Synergist against Pseudomonas aeruginosa with a Hyperbiofilm Phenotype” (J Med Chem, 2023)
Blank lines part the entries; values can stand above or below the compound they belong to. Activity calls are given as the source filed them. The calls are words filed in the database; no cut-off is given here.

Key:
Quadruplex DNA = test: Induction of c-diGMP G quadruplex formation at 30 uM incubated for 12 hrs by circular dichroism analysis; format: nucleic-acid assay
Pseudomonas aeruginosa [1] = test: Antibiofilm activity against Pseudomonas aeruginosa PAO1 delta wspF at 1.25 uM measured after 24 hrs by crystal violet staining based analysis; format: functional, organism-based
Pseudomonas aeruginosa [2] = test: Anti-motility activity against Pseudomonas aeruginosa PAO1 delta wspF assessed as promotion of swarming motility measured after 24 hrs; format: functional, organism-based; conditions: dose 0.156-1.25 µM
Pseudomonas aeruginosa [3] = test: Synergistic antibacterial activity against Pseudomonas aeruginosa PAO1 delta wspF assessed as inhibition of reproduction of biofilm bacteria at upto 40 uM incubated for 15 hrs in presence of tobramycin by checker board assay; format: functional, organism-based
Pseudomonas aeruginosa [4] = test: Antibacterial activity against Pseudomonas aeruginosa PAO1 delta wspF assessed as reduction in c-di-GMP induced EMP production at 0.156 to 1.25 uM incubated for 3 hrs by Congo red dye based spectrophotometric assay; format: functional, organism-based; conditions: dose 0.156-1.25 µM
Pseudomonas aeruginosa [5] = test: Antibacterial activity against Pseudomonas aeruginosa PAO1 delta wspF assessed as eradication of preformed bacterial biofilm at 0.625 to 40 uM incubated for 15 hrs by crystal violet staining based analysis; format: functional, organism-based; conditions: dose 0.625-40 µM
Vero = test: Cytotoxicity against African green monkey Vero cells at 0.156 to 20 uM measured after 24 hrs by MTT assay relative to control; format: toxicity, cell-based; conditions: chlorocebus sabaeus, dose 0.156-20 µM
Pseudomonas aeruginosa [6] = test: Antibacterial activity against Pseudomonas aeruginosa PAO1 delta wspF assessed as reduction in c-di-GMP induced EMP production at 1.25 uM incubated for 3 hrs by Congo red dye based spectrophotometric assay relative to control; format: functional; set-up: scale not given: the % may be the effect or the level left
Pseudomonas aeruginosa [7] = test: Antibacterial activity against Pseudomonas aeruginosa PAO1 delta wspF assessed as inhibition of biofilm formation at 1.25 uM incubated for 24 hrs relative to control; format: functional; set-up: scale not given: the % may be the effect or the level left
DNA = test: Induction of pBR322 DNA (unknown origin) damage assessed as DNA embedding effect by measuring tail formation incubated for 10 mins by electrophoresis assay; format: toxicity
Pseudomonas aeruginosa [8] = test: Antibacterial activity against Pseudomonas aeruginosa PAO1 delta wspF assessed as eradication of mature biofilm at 0.16 to 40 uM incubated for 15 hrs by crystal violet staining based analysis relative to control; format: functional; conditions: dose 0.16-40 µM
Caenorhabditis elegans [9] = test: Synergistic anti-infective activity against Caenorhabditis elegans assessed as survival rate at 0.16 to 20 uM incubated for 24 hrs in presence of tobramycin relative to control; format: functional; conditions: dose 0.16-20 µM
Pseudomonas aeruginosa [10] = test: Synergistic antibacterial activity against Pseudomonas aeruginosa PAO1 delta wspF assessed as inhibition of reproduction of biofilm bacteria at 2X MBC in presence of streptozocin by checker board assay; format: functional, organism-based
Caenorhabditis elegans [11] = test: Anti-infective activity against Caenorhabditis elegans assessed as survival rate at MBC level incubated for 24 hrs relative to control; format: functional
[12] = Cytotoxicity against African green monkey Vero cells assessed as survival rate at 0.156 to 20 uM measured after 48 hrs by MTT assay relative to control; format: toxicity, cell-based; conditions: chlorocebus sabaeus, dose 0.156-20 µM, read-out: Survival
Pseudomonas aeruginosa [13] = test: Antibiofilm activity against Pseudomonas aeruginosa PAO1 delta wspF assessed as increase in number of planktonic bacteria at 1.25 to 10 uM incubated for 2 hrs; format: functional, organism-based; conditions: dose 1.25-10 µM
Pseudomonas aeruginosa [14] = test: Synergistic antibacterial activity against Pseudomonas aeruginosa PAO1 delta wspF assessed as inhibition of reproduction of biofilm bacteria at high concentration incubated for 15 hrs in presence of tobramycin by checker board assay; format: functional, organism-based
Pseudomonas aeruginosa [15] = test: Antibacterial activity against Pseudomonas aeruginosa PAO1 delta wspF assessed as eradication of preformed bacterial biofilm at 1.25 uM incubated for 15 hrs by crystal violet staining based analysis relative to control; format: functional
Caenorhabditis elegans [16] = test: Synergistic anti-infective activity against Caenorhabditis elegans assessed as survival rate at 10 uM incubated for 24 hrs in presence of tobramycin relative to control; format: functional
Pseudomonas aeruginosa [17] = test: Synergistic antibacterial activity Pseudomonas aeruginosa PAO1 delta wspF assessed as fold reduction in survival of biofilm bacteria at 1.25 to 10 uM incubated for 15 hrs in presence of tobramycin by checker board assay; format: functional; conditions: dose 1.25-10 µM

SMILES: CN(N=O)C(=O)N[C@@H](C=O)[C@@H](O)[C@H](O)[C@H](O)CO [STREPTOZOCIN]
Activity (Pseudomonas aeruginosa [8]): 30%
Activity (Caenorhabditis elegans [9]): 25%

SMILES: CN1/C(=C/c2cc[n+](C)c3ccccc23)Sc2ccccc21.Cc1ccc(S(=O)(=O)[O-])cc1
Activity (Pseudomonas aeruginosa [10]): Active
Activity (DNA): Active
Activity (Caenorhabditis elegans [11]): 20%

SMILES: CCCNc1ccc(/C=C/c2ccc3ccccc3[n+]2C)cc1
Activity (Quadruplex DNA): Active
Activity (Pseudomonas aeruginosa [1]): Active

SMILES: CNc1ccc(/C=C/c2ccc3ccccc3[n+]2C)cc1
Activity (Quadruplex DNA): Active
Activity (Pseudomonas aeruginosa [1]): Active

SMILES: CCNc1ccc(/C=C/c2ccc3ccccc3[n+]2C)cc1
Activity (Quadruplex DNA): Active
Activity (Pseudomonas aeruginosa [1]): Active

SMILES: COc1cc(/C=C/c2sc3ccccc3[n+]2C)ccc1N(C)N=O.[I-]
viability at 48 h, up to 20 µM [12]: 80%
Activity (Pseudomonas aeruginosa [13]): Active
Activity (Pseudomonas aeruginosa [14]): Active
Activity (Pseudomonas aeruginosa [15]): 40%
Activity (Caenorhabditis elegans [16]): 60%
Activity (Pseudomonas aeruginosa [7]): 80%
fold change (FC) (Pseudomonas aeruginosa [17]): 1000

The next lines start with results.

Activity (Quadruplex DNA): Active
SMILES: CC(C)Nc1ccc(/C=C/c2sc3ccccc3[n+]2C)cc1
Activity (Pseudomonas aeruginosa [1]): Active

Activity (Quadruplex DNA): Active
SMILES: CNc1ccc(/C=C/c2sc3ccccc3[n+]2C)cc1
Activity (Pseudomonas aeruginosa [1]): Active

Activity (Quadruplex DNA): Active
SMILES: CNc1ccc(/C=C/c2sc3ccccc3[n+]2C)cc1OC.[I-]
Activity (Pseudomonas aeruginosa [2]): Dose-Dependent Effect
Activity (Pseudomonas aeruginosa [3]): inactive
Activity (Pseudomonas aeruginosa [4]): Active
Activity (Pseudomonas aeruginosa [5]): inactive
Activity (Pseudomonas aeruginosa [1]): Active
Activity (Vero): > 98%
Activity (Pseudomonas aeruginosa [6]): <50%
Activity (Pseudomonas aeruginosa [7]): 60%
Activity (DNA): Not Active

Activity (Quadruplex DNA): Active
SMILES: CCCNc1ccc(/C=C/c2sc3ccccc3[n+]2C)cc1
Activity (Pseudomonas aeruginosa [1]): Active

Activity (Quadruplex DNA): Active
SMILES: CCNc1ccc(/C=C/c2sc3ccccc3[n+]2C)cc1
Activity (Pseudomonas aeruginosa [1]): Active
